Measured values as given in patent publication US20040014779A1, “Methods and compositions related to IRM compounds and toll-like recptor pathways” (3M Innovative Properties Company, priority 2001, published 2004).

Molecular target: T1, TLR7 (Mus musculus, UniProt P58681)
T1 construct: expressed in transfected cells; host or cells: RAW 264.7 (pIRES vector)
T1 sequence (P58681 27-1050): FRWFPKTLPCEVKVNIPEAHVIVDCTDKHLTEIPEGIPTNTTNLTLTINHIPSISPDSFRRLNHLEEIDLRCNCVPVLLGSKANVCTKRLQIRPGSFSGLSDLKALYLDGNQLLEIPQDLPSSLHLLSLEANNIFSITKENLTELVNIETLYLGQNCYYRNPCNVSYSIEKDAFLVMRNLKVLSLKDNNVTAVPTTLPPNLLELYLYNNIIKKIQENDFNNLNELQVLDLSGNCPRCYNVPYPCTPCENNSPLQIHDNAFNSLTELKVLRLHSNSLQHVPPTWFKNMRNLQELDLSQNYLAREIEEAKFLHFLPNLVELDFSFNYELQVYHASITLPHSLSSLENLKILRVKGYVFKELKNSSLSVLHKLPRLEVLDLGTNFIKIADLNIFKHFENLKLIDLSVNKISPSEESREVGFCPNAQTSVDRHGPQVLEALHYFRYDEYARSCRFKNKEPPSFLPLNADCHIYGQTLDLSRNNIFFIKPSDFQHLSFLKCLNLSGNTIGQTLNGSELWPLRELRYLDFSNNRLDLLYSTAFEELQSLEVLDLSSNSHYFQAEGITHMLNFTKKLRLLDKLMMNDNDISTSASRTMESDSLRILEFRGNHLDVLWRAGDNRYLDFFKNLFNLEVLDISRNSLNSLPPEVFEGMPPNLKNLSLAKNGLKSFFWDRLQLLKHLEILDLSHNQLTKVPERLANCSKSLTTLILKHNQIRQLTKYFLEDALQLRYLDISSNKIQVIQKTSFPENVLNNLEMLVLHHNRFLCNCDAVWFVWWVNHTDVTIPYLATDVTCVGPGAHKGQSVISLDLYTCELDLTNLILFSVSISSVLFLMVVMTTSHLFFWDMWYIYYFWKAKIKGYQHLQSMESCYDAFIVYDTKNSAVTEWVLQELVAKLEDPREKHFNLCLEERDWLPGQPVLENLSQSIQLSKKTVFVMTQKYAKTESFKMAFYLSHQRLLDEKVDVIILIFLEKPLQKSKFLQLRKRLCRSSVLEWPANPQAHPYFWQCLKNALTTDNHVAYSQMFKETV
Assay: IRM-stimulated TNF-α production by RAW 264.7 cells overexpressing TLR7
Format: cell-based, murine
Description: The murine TLR wild-type vectors were generated by PCR amplification from RAW 264.7 cell cDNA with TLR6 specific primers (sense primer: SEQ ID NO 13; antisense primer: SEQ ID NO 14) or TLR7 specific primers (sense primer: SEQ ID NO 15; antisense primer: SEQ ID NO 16) by Pfu Turbo DNA polymerase kit (Stratagene, La Jolla, Calif.). The PCR products were inserted into pCR-Blunt II-TOPO for sequence verification and then subcloned into pIRES (BD Biosciences Clontech, Palo Alto, Calif.) for expression in mammalian cells.
THP-1 cells or RAW 264.7 cells were cultured and transfected with the wild type TLR 6 or wild type TLR 7 plasmids described above. The transfections were performed as in Example 1 with a 4:1 ratio of wild-type TLR to H2K plasmid (THP-1 cells) or CD4 (RAW 264.7 cells).
RAW 264.7 cells were stimulated with various concentrations of resiquimod and analyzed as described in Example 1. Results are provided in Table 4 and are expressed as fold increase in TNF-α production as compared to control transfected RAW 264.7 cells.

SMILES: CCOCc1nc2c(N)nc3ccccc3c2n1CC(C)(C)O [Resiquimod, 4-amino-2-ethoxymethyl-α,α-dimethyl-1H-imidazo[4,5-c]quinoline-1-ethanol]
- Fold increase in TNF-α production over control, TLR7 (RAW 264.7 overexpressing TLR7, 0.0004 μM): 14.8 fold
- Fold increase in TNF-α production over control, TLR7 (RAW 264.7 overexpressing TLR7, 0.001 μM): 8.9 fold
- Fold increase in TNF-α production over control, TLR7 (RAW 264.7 overexpressing TLR7, 0.004 μM): 5.8 fold
- Fold increase in TNF-α production over control, TLR7 (RAW 264.7 overexpressing TLR7, 0.012 μM): 3.8 fold
- Fold increase in TNF-α production over control, TLR7 (RAW 264.7 overexpressing TLR7, 0.037 μM): 3.5 fold
- Fold increase in TNF-α production over control, TLR7 (RAW 264.7 overexpressing TLR7, 1 μM): 1.3 fold
- Fold increase in TNF-α production over control, TLR7 (RAW 264.7 overexpressing TLR7, 3 μM): 1.0 fold
- Fold increase in TNF-α production over control, TLR7 (RAW 264.7 overexpressing TLR7, 10 μM): 1.5 fold
- TLR7 agonist character (in words) (from TLR7 overexpression in RAW 264.7 cells): agonist
